Reference: US20250332173A1, “COMPOUNDS AND METHODS FOR MODULATING NUCLEIC ACID SPLICING” (REMIX THERAPEUTICS INC., priority 2021, published 2025)
Like-named read-outs stand apart in the source and are kept apart here.

What was measured:
Format in all cases: cell-based, human
MYB = assay: HiBiT protein abundance assay, MYB HiBiT K562 cell line; settings: 24 hours, top dose 10 μM
Summary of the method: (§1)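 K562 knock-in lines with endogenous HiBiT-tagged target, 10,000 cells/well in IMDM + FBS, treated 24 h at 37° C with 10-point 3-fold dilutions (top 10 μM final; DMSO ≤0.25%). Lytic Nano-Glo HiBiT luminescence normalized to untagged K562 baseline and DMSO controls; IC50 = concentration giving 50% abundance via four-parameter fit.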

HTT mRNA = assay: RT-qPCR splicing assay, HTT canonical junction (CJ) and alternative junction (AJ) mRNA; settings: Homo sapiens; for AC50: increase in HTT alternative junction (AJ) mRNA, read-out: HTT AJ AC50
Summary of the method: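 24 h treatment, 37 °C/5% CO2; A673 or K562; 11-pt 3-fold series, top 10 uM final; DMSO ≤0.25%. Cell lysis with DNase I, then 1-step RT-qPCR. Housekeeping normalization: PPIA (A673), GAPDH or GUSB (K562).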

HTT = assay: HiBiT protein abundance assay, HTT HiBiT K562 cell line; settings: 24 hours, top dose 10 μM
Summary of the method: as §1

[1] = HiBiT K562 cell line, read-out: Effect on protein abundance, MYB (IC50 category)
[2] = decrease in HTT canonical junction (CJ) mRNA, RT-qPCR, read-out: HTT CJ IC50
[3] = Table 5 panel, canonical junction qPCR, compound concentration having 50% response in CJ decrease, read-out: HTT IC50 (decrease in CJ mRNA levels)
[4] = HiBiT K562 cell line, read-out: Effect on protein abundance, HTT (IC50 category)
[5] = HiBiT lytic detection, modified K562 cells, read-out: Effect on protein abundance, MYB (IC50)
[6] = canonical junction qPCR panel, Table 5, read-out: HTT (decrease in CJ mRNA levels, IC50)
[7] = HiBiT lytic detection, modified K562 cells, read-out: Effect on protein abundance, HTT (IC50)

Compound	IC50 (MYB; [1])	IC50 (HTT mRNA; [2])	IC50 (HTT mRNA; [3])	IC50 (HTT; [4])	IC50 (MYB; [5])	IC50 (HTT mRNA; [6])	IC50 (HTT; [7])	AC50 (HTT mRNA; RT-qPCR)
Cn1cc2cc(-c3ncc4c(=O)n(C56CCC(N)(CC5)C6)ccc4n3)c(O)c(F)c2n1 [Compound 1468]		0.1 to 1 µM			< 0.1 µM	0.1 to 1 µM	0.1 to 1 µM	0.1 to 1 µM
CN(c1ccc2ncn(-c3cc(F)c4nn(C)cc4c3)c(=O)c2c1)C1CCNCC1 [Compound 2198]		> 10 µM			> 10 µM	> 10 µM	> 10 µM	> 10 µM
Cc1cn2cc(-n3cnc4cc(N5CCNCC5)ccc4c3=O)cc(F)c2n1 [Compound 228]	0.1 to 1 µM	0.1 to 1 µM	0.1 to 1 µM	0.1 to 1 µM				0.1 to 1 µM
Cn1cc2cc(-c3ncc4c(=O)n(C56CCC(N)(CC5)C6)ccc4n3)c(O)cc2n1 [Compound 1470]		> 10 µM			0.1 to 1 µM	1 to 10 µM	1 to 10 µM	1 to 10 µM
Cn1cc2cc(-c3ncc4c(=O)n([C@H]5CCNC5)ccc4n3)c(O)c(F)c2n1 [Compound 1465]	0.1 to 1 µM	0.1 to 1 µM		0.1 to 1 µM		0.1 to 1 µM		0.1 to 1 µM
Cc1cn2cc(-c3ccc4c(=O)n(C5CCNCC5)cnc4c3)cc(F)c2n1 [Compound 205]	0.1 to 1 µM	0.1 to 1 µM	0.1 to 1 µM	0.1 to 1 µM				0.1 to 1 µM
Cc1cn2nc(-c3ccc4c(=O)n(C5CCNC6(CCC6)C5)ncc4n3)cc(C)c2n1 (centres unmarked) [Compound 1553]		1 to 10 µM			1 to 10 µM	0.1 to 1 µM	0.1 to 1 µM	0.1 to 1 µM
Cc1cn2nc(-c3ccc4c(=O)n([C@H]5CCN(C)[C@@H](C)C5)ncc4n3)cc(C)c2n1 [Compound 1528, 2-(2,8-dimethylimidazo[1,2-b]pyridazin-6-yl)-6-(1,2-dimethyl-4-piperidyl)pyrido[2,3-d]pyridazin-5-one]		0.1 to 1 µM			0.1 to 1 µM	0.1 to 1 µM	0.1 to 1 µM	0.1 to 1 µM
Cc1cc(-c2ccc3c(c2)CCN(C2CCNCC2)C3=O)cc2cn(C)nc12 [Compound 219, 6-(2,7-dimethylindazol-5-yl)-2-(piperidin-4-yl)-3,4-dihydroisoquinolin-1-one]	0.1 to 1 µM	1 to 10 µM	1 to 10 µM	0.1 to 1 µM				1 to 10 µM
Cc1cn2cc(-c3ccc4c(c3)CCN(C3CCNCC3)C4=O)cc(Cl)c2n1 [Compound 216, 6-[8-chloro-2-methylimidazo[1,2-a]pyridin-6-yl]-2-(piperidin-4-yl)-3,4-dihydroisoquinolin-1-one]	0.1 to 1 µM	1 to 10 µM	1 to 10 µM	0.1 to 1 µM				1 to 10 µM
Cc1c(O)c(-c2ncc3c(=O)n([C@@H]4CC[C@H](N)C4)ccc3n2)cc2cn(C)nc12 [Compound 1477]		0.1 to 1 µM			0.1 to 1 µM	< 0.1 µM	< 0.1 µM	< 0.1 µM
Cc1cn2cc(-c3ncc4c(=O)n(C56CCC(N)(CC5)C6)ccc4n3)cc(F)c2n1 [Compound 1469, 6-(4-aminonorbornane-1-yl)-2-(8-fluoro-2-methyl-imidazo[1,2-a]pyridin-6-yl)pyrido[4,3-d]pyrimidin-5-one]		1 to 10 µM			0.1 to 1 µM	1 to 10 µM	1 to 10 µM	1 to 10 µM
CN1CCC(n2cnc3cc(-c4ccc5nn(C)cc5c4)ccc3c2=O)CC1 [Compound 208]	1 to 10 µM	1 to 10 µM	> 10 µM	1 to 10 µM				> 10 µM
Cc1nc2c(F)cc(-c3ccc4c(c3)CCN(C3CCNCC3)C4=O)cc2s1 [Compound 226]	1 to 10 µM	> 10 µM	> 10 µM	1 to 10 µM				> 10 µM
Cc1cc(-c2ccc3ncn(C4CCNCC4)c(=O)c3c2)cc2cn(C)nc12 [Compound 2169]		> 10 µM			> 10 µM	> 10 µM	> 10 µM	> 10 µM
Cc1cc(-c2cc(F)c3c(=O)n(C4CCNCC4)cnc3c2)cc2cn(C)nc12 [Compound 232]	< 0.1 µM	< 0.1 µM	< 0.1 µM	< 0.1 µM				< 0.1 µM

Continued, in another order:

IC50 (MYB; [1])	IC50 (HTT mRNA; [2])	IC50 (HTT mRNA; [3])	IC50 (HTT; [4])	IC50 (MYB; [5])	IC50 (HTT mRNA; [6])	IC50 (HTT; [7])	Compound	AC50 (HTT mRNA; RT-qPCR)
0.1 to 1 µM	0.1 to 1 µM	0.1 to 1 µM	0.1 to 1 µM				Cc1cn2cc(-c3ccc4c(=O)n(C5CCNC(C)(C)C5)cnc4c3)cc(F)c2n1 (centres unmarked) [Compound 237]	0.1 to 1 µM
	0.1 to 1 µM			1 to 10 µM	0.1 to 1 µM	0.1 to 1 µM	Cc1cn2nc(-c3ccc4c(=O)n(C5CCN(CCF)C6(CC6)C5)ncc4n3)cc(C)c2n1 (centres unmarked) [Compound 1542, 2-(2,8-dimethylimidazo[1,2-b]pyridazin-6-yl)-6-[4-(2-fluoroethyl)-4-azaspiro[2.5]octan-7-1]pyrido[2,3-d]pyridazin-5-one]	0.1 to 1 µM
	1 to 10 µM			1 to 10 µM	1 to 10 µM	1 to 10 µM	Cc1cn2cc(-n3cnc4ccc(N5CCN(C)CC5)cc4c3=O)cc(F)c2n1 [Compound 2197]	1 to 10 µM
1 to 10 µM	1 to 10 µM	1 to 10 µM	1 to 10 µM				Cc1cn2nc(-n3cnc4cc(N5CCNCC5)ccc4c3=O)cc(C)c2n1 [Compound 241]	1 to 10 µM
	0.1 to 1 µM			< 0.1 µM	< 0.1 µM	< 0.1 µM	COc1cc(-c2ccc3c(=O)n([C@H]4CCN[C@@H](C)C4)ccc3n2)nn2cc(C)nc12 [Compound 1519, 2-(8-methoxy-2-methyl-imidazo[1,2-b]pyridazin-6-yl)-6-[(2S,4S)-2-methyl-4-piperidyl]-1,6-naphthyridin-5-one]	< 0.1 µM
	< 0.1 µM			0.1 to 1 µM	< 0.1 µM	< 0.1 µM	Cc1cn2nc(-c3ccc4c(=O)n([C@@H]5CCNC6(CCC6)C5)ncc4n3)cc(C)c2n1 [Compound 1545, 6-[(8R)-5-azaspiro[3.5]nonan-8-yl]-2-(2,8-dimethylimidazo[1,2-b]pyridazin-6-yl)pyrido[2,3-d]pyridazin-5-one]	< 0.1 µM
1 to 10 µM	1 to 10 µM	1 to 10 µM	1 to 10 µM				Cc1cn2cc(-c3ccc4c(c3)CCN(C3CCNCC3)C4=O)c(C)cc2n1 [Compound 218, 6-[2,7-dimethylimidazo[1,2-a]pyridin-6-yl]-2-(piperidin-4-yl)-3,4-dihydroisoquinolin-1-one]	1 to 10 µM
0.1 to 1 µM	0.1 to 1 µM		0.1 to 1 µM		0.1 to 1 µM		Cc1cn2nc(-c3ccc4c(=O)n(C5C[C@@H](C)N[C@H](C)C5)ncc4n3)cc(C)c2n1 (stereo in doubt) [Compound 1537, 2-(2,8-dimethylimidazo[1,2-b]pyridazin-6-yl)-6-[(2R,6R)-2,6-dimethyl-4-piperidyl]pyrido[2,3-d]pyridazin-5-one]	0.1 to 1 µM
	0.1 to 1 µM			< 0.1 µM	0.1 to 1 µM	< 0.1 µM	Cc1c(O)c(-c2ncc3c(=O)n([C@H]4CCNC5(CC5)C4)ccc3n2)cc2cn(C)nc12 [Compound 1512]	0.1 to 1 µM
0.1 to 1 µM	1 to 10 µM		0.1 to 1 µM		0.1 to 1 µM		Cc1c(O)c(-c2ccc3c(=O)n([C@@H]4C[C@@H](C)N[C@@H](C)C4)ccc3n2)cc2cn(C)nc12 [Compound 1463, 6-[(2S,6R)-2,6-dimethyl-4-piperidyl]-2-(6-hydroxy-2,7-dimethyl-indazol-5-yl)-1,6-naphthyridin-5-one]	0.1 to 1 µM
> 10 µM	> 10 µM	> 10 µM	> 10 µM				Cc1cn2cc(-n3cnc4cc(N5CCN(C)CC5)ccc4c3=O)cc(F)c2n1 [Compound 229]	> 10 µM
< 0.1 µM	0.1 to 1 µM		0.1 to 1 µM		0.1 to 1 µM		Cc1c(O)c(-c2ccc3c(=O)n([C@H]4C[C@@H](C)N[C@@H](C)C4)ccc3n2)cc2cn(C)nc12 [Compound 1464, 6-[(2S,6R)-2,6-dimethyl-4-piperidyl]-2-(6-hydroxy-2,7-dimethyl-indazol-5-yl)-1,6-naphthyridin-5-one]	0.1 to 1 µM
	0.1 to 1 µM			0.1 to 1 µM	0.1 to 1 µM	0.1 to 1 µM	Cc1cn2nc(-c3ccc4c(=O)n([C@@H]5CCN(C)[C@H](C)C5)ncc4n3)cc(C)c2n1 [Compound 1527]	0.1 to 1 µM
1 to 10 µM	> 10 µM	> 10 µM	> 10 µM				Cc1cc(-c2ccc3c(=O)n(C4CCN(C)CC4)cnc3c2F)cc2cn(C)nc12 [Compound 235]	> 10 µM
1 to 10 µM	1 to 10 µM	1 to 10 µM	1 to 10 µM				Cc1cc(-c2ccc3c(=O)n(C4CCNCC4)cnc3c2F)cc2cn(C)nc12 [Compound 234]	1 to 10 µM
